# In ChEMBL document CHEMBL1201862, “PubChem BioAssay data set” (2004):
#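 Growth conditions: 96-well plates. Treatment: test compound, 48 hours, 5 concentrations. Analysis: linear interpolation between bracketing concentrations; unreached endpoints set to highest concentration. GI50 = concentration required for 50% inhibition of growth.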 The source made the active and inactive calls. Cut-off read from the data, not from the text of the source: active = GI50 up to about 1.1 µM and inactive = higher.
# How the values were obtained:
# Test in all cases: inhibition of tumour cell growth, NCI panel, 48 h
# MDA-N = tested on: MDA-N
# T47D = tested on: T47D
# OVCAR-8 = tested on: OVCAR-8
# K562 = tested on: K562
# CCRF-CEM = tested on: CCRF-CEM
# OVCAR-3 = tested on: OVCAR-3
# HCT-15 = tested on: HCT-15
# M14 = tested on: M14
# LOX IMVI = tested on: LOX IMVI
# UO-31 = tested on: UO-31
# DLD-1 = tested on: DLD-1
# MDA-MB-231 = tested on: MDA-MB-231
# Malme-3M = tested on: Malme-3M
# SR = tested on: SR
# A498 = tested on: A498
# OVCAR-4 = tested on: OVCAR-4
# IGROV-1 = tested on: IGROV-1
# NCI-H522 = tested on: NCI-H522
# MCF7 = tested on: MCF7
# DMS-114 = tested on: DMS-114
# SF-295 = tested on: SF-295
# HT-29 = tested on: HT-29
# SF-539 = tested on: SF-539
# MOLT-4 = tested on: MOLT-4
# SW-620 = tested on: SW-620
# MDA-MB-435 = tested on: MDA-MB-435
# RPMI-8226 = tested on: RPMI-8226
# TK-10 = tested on: TK-10
# SK-MEL-28 = tested on: SK-MEL-28
# KM12 = tested on: KM12
# HCC 2998 = tested on: HCC 2998
# HL-60 = tested on: HL-60
# HOP-18 = tested on: HOP-18
# UACC-257 = tested on: UACC-257
# CAKI-1 = tested on: CAKI-1
# KM-20L2 = tested on: KM-20L2
# SNB-75 = tested on: SNB-75
# SK-MEL-2 = tested on: SK-MEL-2
# U-251 = tested on: U-251
# PC-3 = tested on: PC-3
# LXFL 529 = tested on: LXFL 529
# NCI/ADR-RES = tested on: NCI/ADR-RES
# BT-549 = tested on: BT-549
# SK-MEL-5 = tested on: SK-MEL-5
# EKVX = tested on: EKVX
# SNB-19 = tested on: SNB-19
# HOP-92 = tested on: HOP-92
# OVCAR-5 = tested on: OVCAR-5
# NCI-H23 = tested on: NCI-H23
# SK-OV-3 = tested on: SK-OV-3
# NCI-H226 = tested on: NCI-H226
# 786-0 = tested on: 786-0
# DU-145 = tested on: DU-145
# SN12C = tested on: SN12C
# DMS-273 = tested on: DMS-273
# RXF 393 = tested on: RXF 393
# A549 = tested on: A549
# HCT-116 = tested on: HCT-116
# NCI-H460 = tested on: NCI-H460
# SF-268 = tested on: SF-268
# COLO 205 = tested on: COLO 205
# UACC-62 = tested on: UACC-62
# HOP-62 = tested on: HOP-62
# ACHN = tested on: ACHN
# M19-MEL = tested on: M19-MEL
# SNB-78 = tested on: SNB-78
# XF498 = tested on: XF498
structure (smiles),measurement,setting,value
NC(=O)/C=C/c1c[nH]c2nccnc12,GI50,MDA-N,3.81 µM (inactive)
same,GI50,T47D,3.5 µM (inactive)
same,GI50,OVCAR-8,2.86 µM (inactive)
same,GI50,K562,0.966 µM (active)
same,GI50,CCRF-CEM,0.656 µM (active)
same,GI50,OVCAR-3,2.34 µM (inactive)
same,GI50,HCT-15,3.27 µM
same,GI50,M14,3.97 µM (inactive)
same,GI50,LOX IMVI,0.625 µM (active)
same,GI50,UO-31,0.735 µM (active)
same,GI50,DLD-1,2.13 µM (inactive)
same,GI50,MDA-MB-231,3.71 µM (inactive)
same,GI50,Malme-3M,0.726 µM (active)
same,GI50,SR,1.66 µM (inactive)
same,GI50,A498,2.58 µM (inactive)
same,GI50,OVCAR-4,4.09 µM (inactive)
same,GI50,IGROV-1,3.83 µM (inactive)
same,GI50,NCI-H522,7.13 µM (inactive)
same,GI50,MCF7,3.27 µM (inactive)
same,GI50,DMS-114,2.22 µM (inactive)
same,GI50,SF-295,3.26 µM (inactive)
same,GI50,HT-29,2.68 µM (inactive)
same,GI50,SF-539,2.24 µM (inactive)
same,GI50,MOLT-4,0.641 µM (active)
same,GI50,SW-620,0.891 µM (active)
same,GI50,MDA-MB-435,3.59 µM (inactive)
same,GI50,RPMI-8226,2.43 µM (inactive)
same,GI50,TK-10,2.43 µM (inactive)
same,GI50,SK-MEL-28,0.628 µM (active)
same,GI50,KM12,2.93 µM (inactive)
same,GI50,HCC 2998,1.14 µM (inactive)
same,GI50,HL-60,2.26 µM (inactive)
same,GI50,HOP-18,0.228 µM (active)
same,GI50,UACC-257,4.11 µM (inactive)
same,GI50,CAKI-1,3.08 µM (inactive)
same,GI50,KM-20L2,0.0723 µM (active)
same,GI50,SNB-75,1.78 µM (inactive)
same,GI50,SK-MEL-2,1.79 µM (inactive)
same,GI50,U-251,4.85 µM (inactive)
same,GI50,PC-3,2.99 µM (inactive)
same,GI50,LXFL 529,0.103 µM (active)
same,GI50,NCI/ADR-RES,2.89 µM (inactive)
same,GI50,BT-549,2.2 µM (inactive)
same,GI50,SK-MEL-5,2.25 µM (inactive)
same,GI50,EKVX,3.15 µM (inactive)
same,GI50,SNB-19,0.973 µM (active)
same,GI50,HOP-92,3.52 µM (inactive)
same,GI50,OVCAR-5,0.15 µM (active)
same,GI50,NCI-H23,0.678 µM (active)
same,GI50,SK-OV-3,3.95 µM (inactive)
same,GI50,NCI-H226,0.78 µM (active)
same,GI50,786-0,3.34 µM (inactive)
same,GI50,DU-145,3.44 µM (inactive)
same,GI50,SN12C,1.01 µM (active)
same,GI50,DMS-273,3.52 µM (inactive)
same,GI50,RXF 393,1.99 µM (inactive)
same,GI50,A549,4.41 µM (inactive)
same,GI50,HCT-116,1.59 µM (inactive)
same,GI50,NCI-H460,3.7 µM (inactive)
same,GI50,SF-268,2.05 µM (inactive)
same,GI50,COLO 205,1.67 µM (inactive)
same,GI50,UACC-62,2.76 µM (inactive)
same,GI50,HOP-62,2.94 µM (inactive)
same,GI50,ACHN,2.71 µM (inactive)
same,GI50,M19-MEL,3.27 µM (inactive)
COc1cccc(-c2nc3c(C(=O)NCCN(C)C)cccc3[nH]2)c1,GI50,OVCAR-8,15.7 µM (inactive)
same,GI50,K562,15.1 µM (inactive)
same,GI50,CCRF-CEM,8.05 µM (inactive)
same,GI50,OVCAR-3,22.7 µM (inactive)
same,GI50,HCT-15,18.9 µM
same,GI50,LOX IMVI,13.3 µM (inactive)
same,GI50,UO-31,11.2 µM (inactive)
same,GI50,DLD-1,18.5 µM (inactive)
same,GI50,Malme-3M,14 µM (inactive)
same,GI50,A498,16.3 µM (inactive)
same,GI50,OVCAR-4,26.3 µM (inactive)
same,GI50,IGROV-1,21.4 µM (inactive)
same,GI50,NCI-H522,15.2 µM (inactive)
same,GI50,MCF7,21.8 µM (inactive)
same,GI50,DMS-114,15.3 µM (inactive)
same,GI50,SF-295,16.2 µM (inactive)
same,GI50,HT-29,11 µM (inactive)
same,GI50,SF-539,17.1 µM (inactive)
same,GI50,MOLT-4,3.38 µM (inactive)
same,GI50,SW-620,12.7 µM (inactive)
same,GI50,RPMI-8226,13.2 µM (inactive)
same,GI50,SK-MEL-28,15.8 µM (inactive)
same,GI50,SNB-78,40.4 µM (inactive)
same,GI50,KM12,20.8 µM (inactive)
same,GI50,HCC 2998,15.6 µM (inactive)
same,GI50,HL-60,15.7 µM (inactive)
same,GI50,HOP-18,18.4 µM (inactive)
same,GI50,UACC-257,16.1 µM (inactive)
same,GI50,CAKI-1,16 µM (inactive)
same,GI50,KM-20L2,14.4 µM (inactive)
same,GI50,SNB-75,21.3 µM (inactive)
same,GI50,SK-MEL-2,18.8 µM (inactive)
same,GI50,U-251,23.8 µM (inactive)
same,GI50,NCI/ADR-RES,18 µM (inactive)
same,GI50,SK-MEL-5,16.7 µM (inactive)
same,GI50,EKVX,34.4 µM (inactive)
same,GI50,SNB-19,31.3 µM (inactive)
same,GI50,HOP-92,18.5 µM (inactive)
same,GI50,OVCAR-5,19.1 µM (inactive)
same,GI50,NCI-H23,19.2 µM (inactive)
same,GI50,SK-OV-3,21.3 µM (inactive)
same,GI50,NCI-H226,14 µM (inactive)
same,GI50,SN12C,17.4 µM (inactive)
same,GI50,DMS-273,11.3 µM (inactive)
same,GI50,RXF 393,20.7 µM (inactive)
same,GI50,A549,18.5 µM (inactive)
same,GI50,HCT-116,7.73 µM (inactive)
same,GI50,NCI-H460,11.1 µM (inactive)
same,GI50,SF-268,13.2 µM (inactive)
same,GI50,COLO 205,10 µM (inactive)
same,GI50,UACC-62,16.7 µM (inactive)
same,GI50,HOP-62,15.1 µM (inactive)
same,GI50,M19-MEL,16.3 µM (inactive)
COC(=O)c1c(CC(=O)OC(C)C)cc2n(c1=O)Cc1c-2nc2ccccc2c1OC,GI50,OVCAR-8,> 100 µM (inactive)
same,GI50,K562,> 100 µM (inactive)
same,GI50,CCRF-CEM,> 100 µM (inactive)
same,GI50,OVCAR-3,> 100 µM (inactive)
same,GI50,HCT-15,> 100 µM
same,GI50,M14,> 100 µM (inactive)
same,GI50,LOX IMVI,> 100 µM (inactive)
same,GI50,UO-31,> 100 µM (inactive)
same,GI50,DLD-1,> 100 µM (inactive)
same,GI50,Malme-3M,> 100 µM (inactive)
same,GI50,SR,33.8 µM (inactive)
same,GI50,A498,> 100 µM (inactive)
same,GI50,OVCAR-4,> 100 µM (inactive)
same,GI50,IGROV-1,83.9 µM (inactive)
same,GI50,NCI-H522,> 100 µM (inactive)
same,GI50,DMS-114,> 100 µM (inactive)
same,GI50,SF-295,> 100 µM (inactive)
same,GI50,HT-29,> 100 µM (inactive)
same,GI50,MOLT-4,> 100 µM (inactive)
same,GI50,SW-620,> 100 µM (inactive)
same,GI50,RPMI-8226,59 µM (inactive)
same,GI50,TK-10,> 100 µM (inactive)
same,GI50,SK-MEL-28,> 100 µM (inactive)
same,GI50,HCC 2998,> 100 µM (inactive)
same,GI50,HL-60,> 100 µM (inactive)
same,GI50,HOP-18,> 100 µM (inactive)
same,GI50,UACC-257,> 100 µM (inactive)
same,GI50,CAKI-1,> 100 µM (inactive)
same,GI50,KM-20L2,> 100 µM (inactive)
same,GI50,SNB-75,27 µM (inactive)
same,GI50,SK-MEL-2,> 100 µM (inactive)
same,GI50,U-251,> 100 µM (inactive)
same,GI50,LXFL 529,> 100 µM (inactive)
same,GI50,SK-MEL-5,> 100 µM (inactive)
same,GI50,XF498,> 100 µM (inactive)
same,GI50,EKVX,> 100 µM (inactive)
same,GI50,SNB-19,> 100 µM (inactive)
same,GI50,HOP-92,45.6 µM (inactive)
same,GI50,OVCAR-5,> 100 µM (inactive)
same,GI50,NCI-H23,> 100 µM (inactive)
same,GI50,SK-OV-3,> 100 µM (inactive)
same,GI50,NCI-H226,99.1 µM (inactive)
same,GI50,786-0,> 100 µM (inactive)
same,GI50,SN12C,> 100 µM (inactive)
same,GI50,DMS-273,> 100 µM (inactive)
same,GI50,RXF 393,26.4 µM (inactive)
same,GI50,A549,> 100 µM (inactive)
same,GI50,HCT-116,> 100 µM (inactive)
same,GI50,NCI-H460,> 100 µM (inactive)
same,GI50,SF-268,> 100 µM (inactive)
same,GI50,COLO 205,> 100 µM (inactive)
same,GI50,UACC-62,> 100 µM (inactive)
same,GI50,HOP-62,> 100 µM (inactive)
same,GI50,ACHN,> 100 µM (inactive)
same,GI50,M19-MEL,> 100 µM (inactive)
